Tested on: 996289-038-R-J1-PDC spheroid viability
Experiment: Anticancer human tumor 996289-038-R-J1-PDC patient-derived colon adenocarcinoma cell line growth inhibition [PI3K]
Details: spheroids with HUVEC and MSC; for IC50: curve of first compound; for viability, T/C: stronger effect = lower value; active means viability on the fitted dose curve at most 10% of control; inactive means the rest
Procedure, shortened: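 Targeted small molecules plus PI3K inhibitors, half-log dose series from Cmax (default top 10 microM), were applied to heterotypic spheroids of cancer cells with HUVEC and MSCs. Viability indicated growth inhibition.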

[1] = second compound 0.0316 µM, first compound 0.000316 µM
[2] = second compound 0.0316 µM, first compound 0.001 µM
[3] = second compound 0.0316 µM, first compound 0.00316 µM
[4] = second compound 0.0316 µM, first compound 0.01 µM
[5] = second compound 0.0316 µM, first compound 0.0316 µM
[6] = second compound 0.0316 µM, first compound 0.1 µM
[7] = second compound 0.1 µM, first compound 0.000316 µM
[8] = second compound 0.1 µM, first compound 0.001 µM
[9] = second compound 0.1 µM, first compound 0.00316 µM
[10] = second compound 0.1 µM, first compound 0.01 µM
[11] = second compound 0.1 µM, first compound 0.0316 µM
[12] = second compound 0.1 µM, first compound 0.1 µM
[13] = second compound 0.316 µM, first compound 0.000316 µM
[14] = second compound 0.316 µM, first compound 0.001 µM
[15] = second compound 0.316 µM, first compound 0.00316 µM
[16] = second compound 0.316 µM, first compound 0.01 µM
[17] = second compound 0.316 µM, first compound 0.0316 µM
[18] = second compound 0.316 µM, first compound 0.1 µM
[19] = second compound 1 µM, first compound 0.000316 µM
[20] = second compound 1 µM, first compound 0.001 µM
[21] = second compound 1 µM, first compound 0.00316 µM
[22] = second compound 1 µM, first compound 0.01 µM
[23] = second compound 1 µM, first compound 0.0316 µM
[24] = second compound 1 µM, first compound 0.1 µM
[25] = second compound 3.16 µM, first compound 0.000316 µM
[26] = second compound 3.16 µM, first compound 0.001 µM
[27] = second compound 3.16 µM, first compound 0.00316 µM
[28] = second compound 3.16 µM, first compound 0.01 µM
[29] = second compound 3.16 µM, first compound 0.0316 µM
[30] = second compound 3.16 µM, first compound 0.1 µM
[31] = second compound 10 µM, first compound 0.000316 µM
[32] = second compound 10 µM, first compound 0.001 µM
[33] = second compound 10 µM, first compound 0.00316 µM
[34] = second compound 10 µM, first compound 0.01 µM
[35] = second compound 10 µM, first compound 0.0316 µM
[36] = second compound 10 µM, first compound 0.1 µM
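Further: spheroids exposed to compounds for seven days before viability read.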
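Wherever viability, T/C is given: luminescence used as a proxy for viable cell amount; percent viability relative to DMSO vehicle control as 100%.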

CC(C)n1nc(-c2ccc3oc(N)nc3c2)c2c(N)ncnc21 + Cc1nc(NC(=O)N2CCCC2C(N)=O)sc1-c1ccnc(C(C)(C)C(F)(F)F)c1
27.3 nM: IC50 (second compound 0.1 µM)
2.54 nM: IC50 (second compound 3.16 µM)
26 nM: IC50 (second compound 1 µM)
inactive: viability, T/C [1] 97.1% | viability, T/C [2] 83.5% | viability, T/C [3] 89.2% | viability, T/C [4] 79% | viability, T/C [5] 66.5% | viability, T/C [6] 33.1% | viability, T/C [7] 100% | viability, T/C [8] 83.2% | viability, T/C [9] 78.4% | viability, T/C [10] 61.7% | viability, T/C [11] 54.5% | viability, T/C [12] 25.4% | viability, T/C [13] 77.7% | viability, T/C [14] 86.4% | viability, T/C [15] 93% | viability, T/C [16] 58.9% | viability, T/C [17] 63.3% | viability, T/C [18] 24.1% | viability, T/C [19] 72.5% | viability, T/C [20] 79.9% | viability, T/C [21] 66.5% | viability, T/C [22] 59.5% | viability, T/C [23] 49.8% | viability, T/C [24] 22.3% | viability, T/C [25] 63.9% | viability, T/C [26] 53% | viability, T/C [27] 48.5% | viability, T/C [28] 40.6% | viability, T/C [29] 32.3% | viability, T/C [30] 17.2% | viability, T/C [31] 43.9% | viability, T/C [32] 40.8% | viability, T/C [33] 40.4% | viability, T/C [34] 35.5% | viability, T/C [35] 25.2% | viability, T/C [36] 14.2%
< 0.316 nM: IC50 (second compound 10 µM)
54.8 nM: IC50 (second compound 0.0316 µM)
41.5 nM: IC50 (second compound 0.316 µM)

Cn1ncnc1[C@H]1c2n[nH]c(=O)c3cc(F)cc(c23)N[C@@H]1c1ccc(F)cc1 + CC(Nc1ncnc2nc[nH]c12)c1cc2cccc(Cl)c2c(=O)n1-c1ccccc1
inactive: viability, T/C [1] 97.1% | viability, T/C [2] 99.7% | viability, T/C [3] 107% | viability, T/C [4] 104% | viability, T/C [5] 111% | viability, T/C [6] 94.3% | viability, T/C [7] 107% | viability, T/C [8] 98.4% | viability, T/C [9] 96.1% | viability, T/C [10] 96.3% | viability, T/C [11] 122% | viability, T/C [12] 96.4% | viability, T/C [13] 93.9% | viability, T/C [14] 102% | viability, T/C [15] 110% | viability, T/C [16] 100% | viability, T/C [17] 109% | viability, T/C [18] 89.8% | viability, T/C [19] 95.1% | viability, T/C [20] 94.3% | viability, T/C [21] 103% | viability, T/C [22] 96.3% | viability, T/C [23] 103% | viability, T/C [24] 95.2% | viability, T/C [25] 90.4% | viability, T/C [26] 109% | viability, T/C [27] 94.5% | viability, T/C [28] 96.3% | viability, T/C [29] 95.4% | viability, T/C [30] 94.8% | viability, T/C [31] 90% | viability, T/C [32] 90.5% | viability, T/C [33] 96.8% | viability, T/C [34] 81.5% | viability, T/C [35] 94.6% | viability, T/C [36] 77.8%
> 100 nM: IC50 (second compound 0.0316 µM) | IC50 (second compound 0.1 µM) | IC50 (second compound 0.316 µM) | IC50 (second compound 1 µM) | IC50 (second compound 3.16 µM) | IC50 (second compound 10 µM)

Cn1ncnc1[C@H]1c2n[nH]c(=O)c3cc(F)cc(c23)N[C@@H]1c1ccc(F)cc1 + CC(Nc1ccc2c(c1)OCCn1cc(N3C(=O)OCC3C(F)F)nc1-2)C(N)=O
> 100 nM: IC50 (second compound 0.00316 µM) | IC50 (second compound 0.01 µM) | IC50 (second compound 0.0316 µM) | IC50 (second compound 0.1 µM) | IC50 (second compound 0.316 µM) | IC50 (second compound 1 µM)
inactive: viability, T/C (second compound 0.00316 µM, first compound 0.000316 µM) 109% | viability, T/C (second compound 0.00316 µM, first compound 0.001 µM) 104% | viability, T/C (second compound 0.00316 µM, first compound 0.00316 µM) 95% | viability, T/C (second compound 0.00316 µM, first compound 0.01 µM) 112% | viability, T/C (second compound 0.00316 µM, first compound 0.0316 µM) 99.5% | viability, T/C (second compound 0.00316 µM, first compound 0.1 µM) 90.2% | viability, T/C (second compound 0.01 µM, first compound 0.000316 µM) 103% | viability, T/C (second compound 0.01 µM, first compound 0.001 µM) 102% | viability, T/C (second compound 0.01 µM, first compound 0.00316 µM) 103% | viability, T/C (second compound 0.01 µM, first compound 0.01 µM) 111% | viability, T/C (second compound 0.01 µM, first compound 0.0316 µM) 106% | viability, T/C (second compound 0.01 µM, first compound 0.1 µM) 98.6% | viability, T/C [1] 114% | viability, T/C [2] 85.7% | viability, T/C [3] 88.5% | viability, T/C [4] 101% | viability, T/C [5] 97.3% | viability, T/C [6] 85.4% | viability, T/C [7] 89.1% | viability, T/C [8] 87.6% | viability, T/C [9] 77.5% | viability, T/C [10] 91.6% | viability, T/C [11] 92% | viability, T/C [12] 78.3% | viability, T/C [13] 81.7% | viability, T/C [14] 77.8% | viability, T/C [15] 81.2% | viability, T/C [16] 82.2% | viability, T/C [17] 79.2% | viability, T/C [18] 68.7% | viability, T/C [19] 53% | viability, T/C [20] 59.8% | viability, T/C [21] 68.6% | viability, T/C [22] 58.1% | viability, T/C [23] 59.2% | viability, T/C [24] 54.2%

From PubChem BioAssay AID1963965 (Molecular Pharmacology Branch, DTP, NCI, 2024)
